In PMC8635029 (Frontiers in Pharmacology, 2021):

How the values were obtained:
[1] = test system: mice; assay: Locomotor activity test (sedation); settings: 0.4 mg/kg, 15 min post-dosing
[2] = molecular target: T1, human κ opioid receptor (Homo sapiens, UniProt P41145); assay: cAMP accumulation assay (forskolin-induced); format: cell-based; settings: 2 μM forskolin, 30 min; read-out: EC50 for inhibition of forskolin-induced cAMP accumulation
T1 construct: expressed in transfected cells; cell membranes
T1 sequence (P41145 whole entry): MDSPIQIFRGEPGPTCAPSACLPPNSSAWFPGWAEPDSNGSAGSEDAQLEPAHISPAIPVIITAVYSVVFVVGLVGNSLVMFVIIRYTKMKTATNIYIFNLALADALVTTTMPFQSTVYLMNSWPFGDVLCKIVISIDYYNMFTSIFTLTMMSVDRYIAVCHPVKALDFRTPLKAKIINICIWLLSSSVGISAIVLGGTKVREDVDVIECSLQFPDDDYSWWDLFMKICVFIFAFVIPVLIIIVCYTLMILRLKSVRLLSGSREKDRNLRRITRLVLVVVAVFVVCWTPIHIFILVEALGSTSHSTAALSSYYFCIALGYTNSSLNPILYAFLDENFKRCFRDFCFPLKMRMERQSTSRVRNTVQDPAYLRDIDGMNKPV
Method: PathHunter® U2OS OPRK1 β-Arrestin cell line (DiscoverX) was maintained in McCoy’s 5A with 10% FBS, 250 μg/ml Hygromycin B and 500 μg/ml G418. When the cells reached to 80–90% confluence, they were collected and resuspended in HBSS (1X) containing 50 mM HEPES, 5 mM IBMX and 1% BSA stabilizer (lance® UltracAMP Kit, PerkinElmer) by adjusting the cell density to 3 × 10^5 cells/mL. The cells were divided into 384-well white plate (Corning®3572) at a volume of 5 μL, and were treated with compounds and 2 μM forskolin (an inducer of intracellular cAMP formation) for 30 min at room temperature. Subsequently, 5 μL of Eu-cAMP Tracer Working Solution and 5 μL of Ulight-anti-cAMP Working Solution per well were added to reach a final volume of 20 μL. The plate was incubated for 1 h at room temperature in the dark. The cAMP levels were then determined by using a microplate reader with TR-FRET assay ([Wang et al., 2014]). The results was expressed as (1–Signal[compound]/Signal[control]) × 100.

[3] = molecular target: T1, human κ opioid receptor; assay: [3H]diprenorphine binding assay
[4] = molecular target: T2, Nicotinic Acetylcholine α1, Bungarotoxin (Homo sapiens, UniProt P02708+P07510+Q07001); assay: In vitro SafetyScreen panel; format: binding
T2 construct: Eurofins Discovery (outsourced panel) PP223
T2 sequence (P07510 23-517): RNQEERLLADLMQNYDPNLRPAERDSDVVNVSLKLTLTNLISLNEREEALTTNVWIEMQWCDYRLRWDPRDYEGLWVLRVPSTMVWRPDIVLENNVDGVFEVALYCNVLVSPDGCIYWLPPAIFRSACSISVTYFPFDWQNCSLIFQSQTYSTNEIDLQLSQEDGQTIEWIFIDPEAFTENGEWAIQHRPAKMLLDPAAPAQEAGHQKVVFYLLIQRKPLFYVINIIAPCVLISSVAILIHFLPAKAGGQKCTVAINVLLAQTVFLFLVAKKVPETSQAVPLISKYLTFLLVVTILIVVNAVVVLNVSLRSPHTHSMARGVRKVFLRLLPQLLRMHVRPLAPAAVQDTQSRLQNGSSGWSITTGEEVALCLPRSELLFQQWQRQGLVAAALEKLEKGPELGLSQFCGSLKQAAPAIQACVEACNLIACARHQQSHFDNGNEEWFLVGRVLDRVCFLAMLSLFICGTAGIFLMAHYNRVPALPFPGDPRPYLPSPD
T2 sequence (Q07001 22-517): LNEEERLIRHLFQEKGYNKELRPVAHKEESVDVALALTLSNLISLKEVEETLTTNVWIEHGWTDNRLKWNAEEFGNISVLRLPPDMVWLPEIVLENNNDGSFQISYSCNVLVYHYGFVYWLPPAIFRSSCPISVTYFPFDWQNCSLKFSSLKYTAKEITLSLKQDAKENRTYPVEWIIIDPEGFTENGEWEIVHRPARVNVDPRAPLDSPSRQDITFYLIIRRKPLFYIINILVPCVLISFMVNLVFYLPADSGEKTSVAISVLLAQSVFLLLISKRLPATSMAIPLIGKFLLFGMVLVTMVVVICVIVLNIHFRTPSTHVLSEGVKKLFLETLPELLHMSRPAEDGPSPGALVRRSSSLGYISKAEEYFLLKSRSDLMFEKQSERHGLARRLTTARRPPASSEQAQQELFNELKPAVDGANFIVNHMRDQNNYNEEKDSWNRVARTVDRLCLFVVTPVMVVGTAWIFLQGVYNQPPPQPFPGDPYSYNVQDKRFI
T2 sequence (P11230 24-501, further chain): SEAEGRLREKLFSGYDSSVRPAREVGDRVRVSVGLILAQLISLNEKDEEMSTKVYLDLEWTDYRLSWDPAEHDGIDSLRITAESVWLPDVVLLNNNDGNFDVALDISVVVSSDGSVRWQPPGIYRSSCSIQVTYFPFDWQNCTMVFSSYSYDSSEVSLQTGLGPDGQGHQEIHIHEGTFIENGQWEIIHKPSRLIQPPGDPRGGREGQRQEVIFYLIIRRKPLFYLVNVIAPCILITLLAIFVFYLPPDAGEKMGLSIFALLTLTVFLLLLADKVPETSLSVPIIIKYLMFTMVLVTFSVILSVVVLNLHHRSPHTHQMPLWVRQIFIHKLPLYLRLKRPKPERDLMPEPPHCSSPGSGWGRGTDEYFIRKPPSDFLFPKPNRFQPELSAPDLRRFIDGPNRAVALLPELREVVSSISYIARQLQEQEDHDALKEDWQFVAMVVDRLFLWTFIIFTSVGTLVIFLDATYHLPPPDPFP
T2 sequence (P02708 21-457): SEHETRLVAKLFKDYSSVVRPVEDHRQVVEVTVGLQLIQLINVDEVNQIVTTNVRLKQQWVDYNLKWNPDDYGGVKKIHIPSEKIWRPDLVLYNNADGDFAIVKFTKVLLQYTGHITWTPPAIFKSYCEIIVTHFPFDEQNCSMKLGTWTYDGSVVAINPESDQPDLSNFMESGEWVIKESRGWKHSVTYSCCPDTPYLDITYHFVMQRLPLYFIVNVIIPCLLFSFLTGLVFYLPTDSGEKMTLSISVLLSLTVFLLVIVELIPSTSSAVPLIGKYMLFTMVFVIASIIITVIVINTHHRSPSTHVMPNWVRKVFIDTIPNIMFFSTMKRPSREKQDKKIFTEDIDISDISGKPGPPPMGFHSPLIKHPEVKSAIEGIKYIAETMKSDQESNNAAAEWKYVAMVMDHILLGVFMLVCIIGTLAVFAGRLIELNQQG

[5] = molecular target: T3, Serotonin (5-Hydroxytryptamine) 5-HT2B (Homo sapiens, UniProt P41595); assay: In vitro SafetyScreen panel; format: binding
T3 construct: Eurofins Discovery (contract panel) PP223
T3 sequence (P41595 whole entry): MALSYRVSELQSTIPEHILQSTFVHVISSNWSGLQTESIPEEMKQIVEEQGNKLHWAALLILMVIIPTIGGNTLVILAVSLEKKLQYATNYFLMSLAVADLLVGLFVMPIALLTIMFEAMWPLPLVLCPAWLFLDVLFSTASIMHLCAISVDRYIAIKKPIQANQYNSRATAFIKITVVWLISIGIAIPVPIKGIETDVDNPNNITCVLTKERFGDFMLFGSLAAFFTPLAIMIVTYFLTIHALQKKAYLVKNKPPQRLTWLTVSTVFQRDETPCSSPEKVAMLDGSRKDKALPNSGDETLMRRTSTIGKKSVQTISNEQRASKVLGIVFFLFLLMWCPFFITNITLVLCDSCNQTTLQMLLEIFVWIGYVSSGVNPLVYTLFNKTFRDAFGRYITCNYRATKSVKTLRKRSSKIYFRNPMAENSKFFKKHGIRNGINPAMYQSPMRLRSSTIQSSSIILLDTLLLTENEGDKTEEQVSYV
Method: (§1) In vitro off-target pharmacological activities of HSK21542 were evaluated on 86 targets using a SafetyScreen panel (Item PP223, target selectivity panel) and the corresponding methods could be found at https://www.eurofinsdiscoveryservices.com/.

[6] = molecular target: T4, Adrenergic α1D (Homo sapiens, UniProt P25100); assay: In vitro SafetyScreen panel; format: binding
T4 construct: Eurofins Discovery (contract panel) PP223
T4 sequence (P25100 whole entry): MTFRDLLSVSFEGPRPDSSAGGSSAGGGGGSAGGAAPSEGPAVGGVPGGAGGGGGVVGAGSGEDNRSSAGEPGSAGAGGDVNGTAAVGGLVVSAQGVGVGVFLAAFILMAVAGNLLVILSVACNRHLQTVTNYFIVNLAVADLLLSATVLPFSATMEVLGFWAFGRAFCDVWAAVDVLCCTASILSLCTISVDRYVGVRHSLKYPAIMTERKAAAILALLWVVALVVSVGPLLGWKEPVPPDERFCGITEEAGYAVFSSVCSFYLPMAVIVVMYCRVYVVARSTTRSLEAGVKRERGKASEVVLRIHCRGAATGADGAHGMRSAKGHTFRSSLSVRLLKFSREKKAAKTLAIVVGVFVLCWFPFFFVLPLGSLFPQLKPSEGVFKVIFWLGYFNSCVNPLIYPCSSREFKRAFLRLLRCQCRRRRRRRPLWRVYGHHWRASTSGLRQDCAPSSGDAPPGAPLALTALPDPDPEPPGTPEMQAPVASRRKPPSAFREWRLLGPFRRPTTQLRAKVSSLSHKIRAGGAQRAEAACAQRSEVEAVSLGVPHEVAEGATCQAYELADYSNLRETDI
Method: as §1

[7] = molecular target: T5, Leukotriene, Cysteinyl CysLT1 (Homo sapiens, UniProt Q9Y271); assay: In vitro SafetyScreen panel; format: binding
T5 construct: Eurofins Discovery (contract panel) Item PP223
T5 sequence (Q9Y271 whole entry): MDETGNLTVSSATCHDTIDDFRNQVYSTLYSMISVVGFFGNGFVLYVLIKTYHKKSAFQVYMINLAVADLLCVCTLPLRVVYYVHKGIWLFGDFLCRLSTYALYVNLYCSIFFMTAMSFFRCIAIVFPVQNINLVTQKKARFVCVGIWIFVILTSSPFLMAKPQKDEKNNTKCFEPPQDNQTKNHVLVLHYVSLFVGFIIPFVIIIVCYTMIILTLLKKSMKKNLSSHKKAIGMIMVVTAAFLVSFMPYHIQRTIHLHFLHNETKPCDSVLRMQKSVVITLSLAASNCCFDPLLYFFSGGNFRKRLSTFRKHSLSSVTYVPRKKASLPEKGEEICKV
Method: as §1

[8] = molecular target: T6, Muscarinic M2 (Homo sapiens, UniProt P08172); assay: In vitro SafetyScreen panel; format: binding
T6 construct: Eurofins Discovery (outsourced panel) PP223
Method: as §1

[9] = molecular target: T7, Muscarinic M1 (Homo sapiens, UniProt P11229); assay: In vitro SafetyScreen panel; format: binding
T7 construct: Eurofins Discovery (outsourced panel) PP223
Method: as §1

[10] = In vivo brain/plasma distribution in rats; settings: rat, iv, SD rats, single 0.3 mg/kg i.v., read-out: brain/plasma concentration ratio
Method: SD rats (half male and half female) were intravenously given a single dose of 0.3 mg/kg HSK21542. The samples were collected at 0.083, 0.5, 1.5 and 4 h after dosing. The rats were anesthetized with isoflurane and then sacrificed by taking blood from the abdominal aorta. The whole brains were rapidly removed from the crania. The plasma (∼100 μL) was separated from the blood by centrifugating at 2000 ×g for 10 min at 4°C. The brains were rinsed with ice-cold normal saline, blotted dry, weighted and placed into a plastic tube. For 1.0 g of brain sample, 4 ml of acetonitrile-ultrapure water solution (1:4, v/v) was added to the tube. The brain samples were then homogenized for 120 s at 50 Hz and ultrasound was performed for 5 min. The plasma and the brain samples were analyzed using a LC-MS/MS assay as detailed in supplementary materials.
The plasma or brain homogenate was ice thawed. […] The resulting solution was then analyzed to determine the concentrations of HSK21542 on a LC-MS/MS system, which consisted of a DGU-20A5R degasser, a LC-30AD pump, a SIL-30AC autosampler, a CTO-20A column oven (Shimadzu, Japan) and an AB Sciex Triple Quad 5500 mass spectrometer (Sciex, Canada). […] Quantification was conducted in positive ion mode. The MRM transition of m/z 704.4→295.2 was used to quantify HSK21542.

[11] = molecular target: T8, Peptidase, Angiotensin Converting Enzyme (Oryctolagus cuniculus, UniProt P12822); assay: In vitro SafetyScreen panel; format: biochemical, rabbit
T8 construct: Eurofins Discovery (outsourced panel) PP223
T8 sequence (P12822 34-1310): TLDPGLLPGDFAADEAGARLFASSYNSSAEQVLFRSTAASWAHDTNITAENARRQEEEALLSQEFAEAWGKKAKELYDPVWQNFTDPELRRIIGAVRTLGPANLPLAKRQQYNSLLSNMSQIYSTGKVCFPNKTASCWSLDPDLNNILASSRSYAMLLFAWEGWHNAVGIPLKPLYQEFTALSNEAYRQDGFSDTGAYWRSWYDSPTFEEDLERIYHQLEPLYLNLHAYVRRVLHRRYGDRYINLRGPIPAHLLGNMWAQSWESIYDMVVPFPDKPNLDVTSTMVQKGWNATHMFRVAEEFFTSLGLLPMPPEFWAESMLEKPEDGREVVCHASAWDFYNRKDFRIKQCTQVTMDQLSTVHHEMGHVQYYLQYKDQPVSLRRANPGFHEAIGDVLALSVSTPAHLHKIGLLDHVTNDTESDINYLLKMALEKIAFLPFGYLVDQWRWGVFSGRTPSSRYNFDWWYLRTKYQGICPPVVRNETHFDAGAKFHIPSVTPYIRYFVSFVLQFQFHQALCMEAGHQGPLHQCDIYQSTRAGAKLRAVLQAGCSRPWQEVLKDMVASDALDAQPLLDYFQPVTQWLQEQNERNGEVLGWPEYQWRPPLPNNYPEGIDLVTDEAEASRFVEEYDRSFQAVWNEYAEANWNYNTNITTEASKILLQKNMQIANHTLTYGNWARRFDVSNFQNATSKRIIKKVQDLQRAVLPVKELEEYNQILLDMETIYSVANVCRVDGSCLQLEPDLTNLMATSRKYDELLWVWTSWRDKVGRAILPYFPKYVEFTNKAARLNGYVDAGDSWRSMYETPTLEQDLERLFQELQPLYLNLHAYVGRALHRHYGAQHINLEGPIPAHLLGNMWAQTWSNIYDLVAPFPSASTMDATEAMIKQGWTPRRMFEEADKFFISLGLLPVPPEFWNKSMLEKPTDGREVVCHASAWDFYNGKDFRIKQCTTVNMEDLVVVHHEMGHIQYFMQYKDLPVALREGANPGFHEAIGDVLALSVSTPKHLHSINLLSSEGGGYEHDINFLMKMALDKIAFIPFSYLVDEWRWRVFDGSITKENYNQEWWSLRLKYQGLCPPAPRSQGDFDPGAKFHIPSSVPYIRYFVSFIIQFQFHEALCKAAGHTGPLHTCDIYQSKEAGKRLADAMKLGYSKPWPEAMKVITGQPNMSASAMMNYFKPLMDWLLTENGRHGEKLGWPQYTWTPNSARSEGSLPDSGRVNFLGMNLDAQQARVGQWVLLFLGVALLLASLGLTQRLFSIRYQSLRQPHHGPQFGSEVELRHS
Method: as §1

[12] = test system: ICR mice; assay: Measurement of respiration (whole body plethysmography); format: in vivo; settings: 2 mg/kg
Method: A whole body plethysmography (DSI, US) was used to measure respiration in freely moving ICR mice (half male and half female) as described previously ([Manglik et al., 2016]; [Hill et al., 2018a]; [Hill et al., 2018b]) with some modifications. The respiratory frequency was recorded and then averaged for over 5-min period. The baseline values were recorded for 10 min before dosing. The mice were then removed from the chambers and given drugs, and respiration was then measured for 45 min.

[13] = test system: C57BL/6J mice; assay: Hot-plate test; format: in vivo; settings: hot-plate test ED50 / writhing test ED50
Method: The hot-plate test was performed according to previous reports ([DeWire et al., 2013]; [Hill et al., 2018a]; [Wang et al., 2018]). Female C57BL/6J mice were individually placed on a hot plate at 56°C and the latency to licking or jumping was then recorded. A cut-off time of 30 s was imposed in order to prevent tissue damage. Before drug administration, the latency of each mouse was measured and defined as the pre-drug value. The animals with a pre-drug value of greater than 20 s were excluded.

CC(=O)N1CC2(CCN(C(=O)[C@@H](CCCCN)NC(=O)[C@@H](CC(C)C)NC(=O)[C@@H](Cc3ccccc3)NC(=O)[C@H](N)Cc3ccccc3)CC2)C1 [HSK21542, 7-(D-phenylalanyl-D-phenylalanyl-D-leucyl-D-lysyl)-2-acetyl-2,7-diazaspiro (3.5)nonane]
effect on locomotor activity / total distance traveled [1]: did not significantly affect | EC50 [2]: 0.00241 nM | IC50 ([3]; HEK-293 membranes expressing human KOR, 0.6 nM [3H]diprenorphine, 25°C, 60 min, read-out: IC50 for inhibition of [3H]diprenorphine binding to KOR): 0.54 nM | Kd ([3]; competitive binding kinetic model, [3H]diprenorphine, read-out: Kd for binding to KOR (binding kinetics)): 0.068 nM | inhibition at 10 µM [4]: -5% | inhibition at 10 µM [5]: 0% | inhibition at 10 µM [6]: -1% | inhibition at 10 µM [7]: 8% | inhibition at 10 µM [8]: 1% | inhibition at 10 µM [9]: 9% | Kp [10]: 0.001 | inhibition at 10 µM [11]: 5% | effect on respiratory rate [12]: no obvious effects | Therapeutic index [13]: 116.6
